Patent US9907847B2, “Pyrrolopyrimidines as therapeutic agents for the treatment of diseases” (GlaxoSmithKline LLC, priority 2012, dated 2018)
Structures can show the parent of a compound that is named as a salt.

Experiments:
TNF-α = experiment: Induction of TNF-α using fresh human whole blood (WB); assay type: cell-based; details: three donors, overnight incubation, response as % of 2 μM resiquimod control, read-out: mean pEC50 for TNF-α (converted)
Method: (§1) Assay for the Induction of Interferon-[…] and TNF-[…] Using Fresh Human Whole Blood (WB)
(§2) Compounds were prepared at 100× required concentration in DMSO in flat-bottom microtitre plates at a volume of 1.5 μL. Columns 1-10 contained a 1 in 4 serial dilution of the test compound. Included on each plate was a serial dilution of the TLR7/8 agonist resiquimod as a standard and Column 11 contained 1.5 μl of 200 μM resiquimod (giving a 2 μM final concentration, used to define the approximate maximal response to resiquimod). Each compound was assayed in duplicate for each donor.
(§3) Blood samples from three human donors were collected into sodium heparin (10 U/ml). 150 μl of whole Blood was dispensed into Col 1 to 11 of assay plates containing 1.5 μl of test compound or standard in DMSO. Plates were placed in an incubator overnight (37° C., 95% air, 5% CO2). Following the overnight incubation, plates were removed from the incubator & mixed on an orbital shaker for approximately 1 minute. 100 μl of 0.9% saline was added to each well and the plates mixed again on an orbital shaker. Plates were then centrifuged (2500 rpm, 10 mins), after which a sample of plasma was removed using a Biomek FX and assayed for both IFN-α and TNF-α using the MSD (Mesoscale Discovery) electrochemiluminescence assay platform. The IFN-α assay was carried out similarly to that described above. The TNF-α assay was carried out as per kit instructions (Cat No K111BHB).
(§4) Cytokine released was expressed as a percentage of the 2 μM resiquimod control (column 11). This percentage was plotted against compound concentration and the pEC50 for the response determined by non-linear least squares curve fitting. For the IFN-α responses, generally a 4 parameter logistic model was selected. For the TNF-α responses where a clear maximum response was obtained (i.e. a well defined plateau in the response was observed) then a 4 parameter model was generally used. If the upper asymptote of the curve wasn't well defined then the curve fitting was generally constrained to a maximal response of 100% (i.e. to the response to 2 μM resiquimod) or to the response of the highest concentration tested if this was greater than the resiquimod response. Some curves were bell shaped for one or both cytokines and the cytokine data on the down slope of the bell shaped response (i.e. concentrations above those giving the maximal response) were generally excluded from the fit, usually with the exception of the concentration immediately above the peak response. Curve fitting thus concentrated on the up slope of the dose response curve.

IFN-α = experiment: Induction of interferon-α using fresh human whole blood (WB); assay type: cell-based; details: three donors, overnight incubation, response as % of 2 μM resiquimod control, read-out: mean pEC50 for IFN-α (converted)
Method: as §1, §2, §3, §4

Row | Compound | EC50 (TNF-α) | EC50 (IFN-α)
1 | CCCCc1nc(N)c2[nH]cc(CCCCCCN3CCCCC3)c2n1 [Example 1, 2-Butyl-7-(6-(piperidin-1-yl)hexyl)-5H-pyrrolo[3,2-d]pyrimidin-4-amine formate] | ≥ 5.01 µM | ≤ 5.01 µM
2 | CCCCc1nc(N)c2[nH]cc(CCCCCN3CCCCC3)c2n1 [Example 2, 2-Butyl-7-(5-(piperidin-1-yl)pentyl)-5H-pyrrolo[3,2-d]pyrimidin-4-amine] | ≥ 5.01 µM | ≤ 5.01 µM
3 | CCCCc1nc(N)c2[nH]cc(CCCCN3CCCCC3)c2n1 [Example 3, 2-Butyl-7-(4-(piperidin-1-yl)butyl)-5H-pyrrolo[3,2-d]pyrimidin-4-amine] | ≥ 5.01 µM | ≤ 5.01 µM
4 | CCOCc1nc(N)c2[nH]cc(CCCCCCN3CCCCC3)c2n1 [Example 4, 2-(Ethoxymethyl)-7-(6-(piperidin-1-yl)hexyl)-5H-pyrrolo[3,2-d]pyrimidin-4-amine] | ≥ 5.01 µM | ≤ 5.01 µM
5 | COCCc1nc(N)c2[nH]cc(CCCCCCN3CCCCC3)c2n1 [Example 5, 2-(2-Methoxyethyl)-7-(6-(piperidin-1-yl)hexyl)-5H-pyrrolo[3,2-d]pyrimidin-4-amine hydrochloride] | ≥ 5.01 µM | ≤ 5.01 µM
6 | CCCCc1nc(N)c2[nH]c(C)c(CCCCCCN3CCCCC3)c2n1 [Example 6, 2-Butyl-6-methyl-7-(6-(piperidin-1-yl)hexyl)-5H-pyrrolo[3,2-d]pyrimidin-4-amine] | ≥ 5.01 µM | ≤ 5.01 µM
7 | CCCCc1nc(N)c2[nH]c(C)c(CCCCCN3CCCCC3)c2n1 [Example 7, 2-Butyl-6-methyl-7-(5-(piperidin-1-yl)pentyl)-5H-pyrrolo[3,2-d]pyrimidin-4-amine] | ≥ 5.01 µM | ≤ 5.01 µM
8 | CCCCc1nc(N)c2[nH]c(C)c(CCCCN3CCCCC3)c2n1 [Example 8, 2-Butyl-6-methyl-7-(4-(piperidin-1-yl)butyl)-5H-pyrrolo[3,2-d]pyrimidin-4-amine] | ≥ 5.01 µM | ≤ 5.01 µM
9 | CCCCc1nc(N)c2[nH]cc(CCCCCN3CCCC3)c2n1 [Example 9, 2-Butyl-7-(5-(pyrrolidin-1-yl)pentyl)-5H-pyrrolo[3,2-d]pyrimidin-4-amine formate] | ≥ 5.01 µM | ≤ 5.01 µM
10 | CCCCc1nc(N)c2[nH]cc(CCCCCCN3CCCC3)c2n1 [Example 10, 2-Butyl-7-(6-(pyrrolidin-1-yl)hexyl)-5H-pyrrolo[3,2-d]pyrimidin-4-amine] | ≥ 5.01 µM | ≤ 5.01 µM
11 | CCCCCc1nc(N)c2[nH]cc(CCCCCCN3CCCCC3)c2n1 [Example 11, 2-Pentyl-7-(6-(piperidin-1-yl)hexyl)-5H-pyrrolo[3,2-d]pyrimidin-4-amine] | ≥ 5.01 µM | ≤ 5.01 µM
12 | CCCCc1nc(N)c2[nH]cc(CCCCCN3CCCCCC3)c2n1 [Example 12, 7-(5-(Azepan-1-yl)pentyl)-2-butyl-5H-pyrrolo[3,2-d]pyrimidin-4-amine] | ≥ 5.01 µM | ≤ 5.01 µM
13 | CCCCc1nc(N)c2[nH]c(C)c(CCCCN3CCCCCC3)c2n1 [Example 13, 7-(4-(Azepan-1-yl)butyl)-2-butyl-6-methyl-5H-pyrrolo[3,2-d]pyrimidin-4-amine] | ≥ 5.01 µM | ≤ 5.01 µM
14 | CCCCc1nc(N)c2[nH]c(C)c(CCCCCCN3CCCC3)c2n1 [Example 14, 2-Butyl-6-methyl-7-(6-(pyrrolidin-1-yl)hexyl)-5H-pyrrolo[3,2-d]pyrimidin-4-amine] | ≥ 5.01 µM | ≤ 5.01 µM

More lines, now with the values ahead:

Row | EC50 (TNF-α) | EC50 (IFN-α) | Compound
15 | ≥ 5.01 µM | ≤ 5.01 µM | CCCCc1nc(N)c2[nH]c(C)c(CCCCCCN3CCC3)c2n1 [Example 15, 7-(6-(Azetidin-1-yl)hexyl)-2-butyl-6-methyl-5H-pyrrolo[3,2-d]pyrimidin-4-amine]
16 | ≥ 5.01 µM | ≤ 5.01 µM | CCCCc1nc(N)c2[nH]c(C)c(CCCCCN3CCCC3)c2n1 [Example 16, 2-Butyl-6-methyl-7-(5-(pyrrolidin-1-yl)pentyl)-5H-pyrrolo[3,2-d]pyrimidin-4-amine]
17 | ≥ 5.01 µM | ≤ 5.01 µM | CCCCc1nc(N)c2[nH]cc(CCCCCN3CCC3)c2n1 [Example 17, 7-(5-(Azetidin-1-yl)pentyl)-2-butyl-5H-pyrrolo[3,2-d]pyrimidin-4-amine]
18 | ≥ 5.01 µM | ≤ 5.01 µM | CCCCc1nc(N)c2[nH]c(C)c(CCCCCN3CCC3)c2n1 [Example 18, 7-(5-(Azetidin-1-yl)pentyl)-2-butyl-6-methyl-5H-pyrrolo[3,2-d]pyrimidin-4-amine]
19 | ≥ 5.01 µM | ≤ 5.01 µM | CCCCc1nc(N)c2[nH]c(C)c(CCCCN3CCCC3)c2n1 [Example 19, 2-Butyl-6-methyl-7-(4-(pyrrolidin-1-yl)butyl)-5H-pyrrolo[3,2-d]pyrimidin-4-amine]
20 | ≥ 5.01 µM | ≤ 5.01 µM | CCCCc1nc(N)c2[nH]cc(CCCCCN3CCC(F)(F)CC3)c2n1 [Example 20, 2-Butyl-7-(5-(4,4-difluoropiperidin-1-yl)pentyl)-5H-pyrrolo[3,2-d]pyrimidin-4-amine]
21 | ≥ 5.01 µM | ≤ 5.01 µM | CCCCc1nc(N)c2[nH]cc(CCCCCN3CCC(F)CC3)c2n1 [Example 21, 2-Butyl-7-(5-(4-fluoropiperidin-1-yl)pentyl)-5H-pyrrolo[3,2-d]pyrimidin-4-amine]
22 | ≥ 5.01 µM | ≤ 5.01 µM | COCCc1nc(N)c2[nH]cc(CCCCCN3CCC(F)CC3)c2n1 [Example 22, 7-(5-(4-Fluoropiperidin-1-yl)pentyl)-2-(2-methoxyethyl)-5H-pyrrolo[3,2-d]pyrimidin-4-amine]
23 | ≥ 5.01 µM | ≤ 5.01 µM | CCCCc1nc(N)c2[nH]cc(CCCCCN3CCC(O)CC3)c2n1 [Example 23, 1-(5-(4-Amino-2-butyl-5H-pyrrolo[3,2-d]pyrimidin-7-yl)pentyl)piperidin-4-ol]
24 | ≥ 5.01 µM | ≤ 5.01 µM | CCCCc1nc(N)c2[nH]cc(CCCCCN3CC[C@@H](F)C3)c2n1 [Example 24, (R)-2-Butyl-7-(5-(3-fluoropyrrolidin-1-yl)pentyl)-5H-pyrrolo[3,2-d]pyrimidin-4-amine]
25 | ≥ 5.01 µM | ≤ 5.01 µM | CCCCc1nc(N)c2[nH]cc(CCCCCN3CC[C@H](F)C3)c2n1 [Example 25, (S)-2-Butyl-7-(5-(3-fluoropyrrolidin-1-yl)pentyl)-5H-pyrrolo[3,2-d]pyrimidin-4-amine]
26 | ≥ 5.01 µM | ≤ 5.01 µM | COCCc1nc(N)c2[nH]cc(CCCCCN3CC[C@@H](F)C3)c2n1 [Example 26, (R)-7-(5-(3-Fluoropyrrolidin-1-yl)pentyl)-2-(2-methoxyethyl)-5H-pyrrolo[3,2-d]pyrimidin-4-amine formate]
27 | ≥ 5.01 µM | ≤ 5.01 µM | COCCc1nc(N)c2[nH]cc(CCCCCN3CC[C@H](F)C3)c2n1 [Example 27, (S)-7-(5-(3-Fluoropyrrolidin-1-yl)pentyl)-2-(2-methoxyethyl)-5H-pyrrolo[3,2-d]pyrimidin-4-amine formate]
28 | ≥ 5.01 µM | ≤ 5.01 µM | CCCCc1nc(N)c2[nH]cc(CCCCCN3CC[C@H](O)C3)c2n1 [Example 28, (S)-1-(5-(4-Amino-2-butyl-5H-pyrrolo[3,2-d]pyrimidin-7-yl)pentyl)pyrrolidin-3-ol]
29 | ≥ 5.01 µM | ≤ 5.01 µM | CCCCc1nc(N)c2[nH]cc(CCCCCN3CC(O)C3)c2n1 [Example 29, 1-(5-(4-Amino-2-butyl-5H-pyrrolo[3,2-d]pyrimidin-7-yl)pentyl)azetidin-3-ol formate]
